Drawing on ChEMBL document CHEMBL5653631, “A Potent and Selective ULK1 Inhibitor Suppresses Autophagy and Sensitizes Cancer Cells to Nutrient Stress” (iScience, 2018), this text covers inhibition and fold change (FC) for three compounds.

Assay [1] deals with Dual specificity mitogen-activated protein kinase kinase 2 (Homo sapiens) (UniProt P36507). The assay can be described thus: Inhibition of human recombinant MAP2K2 at 40 nM in presence of ATP by radiometric assay relative to control.
For assay [2], the target named is T1, Mitogen-activated protein kinase 13 (Homo sapiens) (UniProt O15264).
T1 sequence (whole entry): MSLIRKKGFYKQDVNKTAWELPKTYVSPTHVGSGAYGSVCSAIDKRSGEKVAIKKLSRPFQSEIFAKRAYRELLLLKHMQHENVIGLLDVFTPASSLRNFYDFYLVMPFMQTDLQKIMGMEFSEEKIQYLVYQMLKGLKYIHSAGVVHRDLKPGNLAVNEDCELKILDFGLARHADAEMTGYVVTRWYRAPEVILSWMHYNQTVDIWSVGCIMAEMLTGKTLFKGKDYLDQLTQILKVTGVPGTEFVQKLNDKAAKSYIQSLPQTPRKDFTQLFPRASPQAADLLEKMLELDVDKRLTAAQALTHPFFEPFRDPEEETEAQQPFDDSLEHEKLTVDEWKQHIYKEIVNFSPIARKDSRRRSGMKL
The assay can be described thus: Inhibition of human recombinant p38delta at 40 nM related to control ULK1.

Assay [3] deals with Misshapen-like kinase 1 (Homo sapiens) (UniProt Q8N4C8). The assay can be described thus: Inhibition of human recombinant MINK at 500 nM related to control ULK1.
Assay [4] addresses Serine/threonine-protein kinase PAK 2 (Homo sapiens) (UniProt Q13177). The assay can be described thus: Inhibition of human recombinant PAK2 at 500 nM related to control ULK1.
The target in assay [5] is Rho-associated protein kinase 2 (Homo sapiens) (UniProt O75116). The assay can be described thus: Inhibition of human recombinant ROCK2 at 500 nM in presence of ATP by radiometric assay relative to control.
Assay [6] has as its target Activin receptor type-2A (Homo sapiens) (UniProt P27037). The assay can be described thus: Inhibition of human recombinant ACTR2 at 500 nM related to control ULK1.
Assay [7] addresses Serine/threonine-protein kinase Nek7 (Homo sapiens) (UniProt Q8TDX7). The assay can be described thus: Inhibition of human recombinant NEK7 at 500 nM related to control ULK1.
Assay [8] has as its target Mitogen-activated protein kinase 9 (Homo sapiens) (UniProt P45984). The assay can be described thus: Inhibition of human recombinant JNK2 at 500 nM in presence of ATP by radiometric assay relative to control.
Assay [9] deals with Serine/threonine-protein kinase PAK 4 (Homo sapiens) (UniProt O96013). The assay can be described thus: Inhibition of human recombinant PAK4 at 500 nM related to control ULK1.
Assay [10] addresses T2, Homeodomain-interacting protein kinase 4 (Homo sapiens) (UniProt Q8NE63).
T2 sequence (whole entry): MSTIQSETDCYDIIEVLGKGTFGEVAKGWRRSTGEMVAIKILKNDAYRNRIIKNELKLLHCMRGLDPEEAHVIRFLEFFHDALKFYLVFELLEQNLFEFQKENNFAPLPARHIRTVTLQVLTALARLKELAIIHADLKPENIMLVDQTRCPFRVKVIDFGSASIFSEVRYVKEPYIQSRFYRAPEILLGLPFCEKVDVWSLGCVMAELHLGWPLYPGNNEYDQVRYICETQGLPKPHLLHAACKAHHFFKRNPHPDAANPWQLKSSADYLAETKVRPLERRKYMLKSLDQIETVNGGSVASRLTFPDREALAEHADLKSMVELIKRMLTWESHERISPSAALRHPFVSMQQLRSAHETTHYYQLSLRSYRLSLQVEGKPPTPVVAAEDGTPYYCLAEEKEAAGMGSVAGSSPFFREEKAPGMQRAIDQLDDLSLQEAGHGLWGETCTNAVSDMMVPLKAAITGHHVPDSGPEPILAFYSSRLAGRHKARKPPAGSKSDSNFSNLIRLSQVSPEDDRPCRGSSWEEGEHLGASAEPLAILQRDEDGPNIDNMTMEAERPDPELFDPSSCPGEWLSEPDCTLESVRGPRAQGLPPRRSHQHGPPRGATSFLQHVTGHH
The assay can be described thus: Inhibition of human recombinant HIPK4 at 15 nM in presence of ATP by radiometric assay relative to control.

Assay [11] deals with G protein-coupled receptor kinase 6 (Homo sapiens) (UniProt P43250). The assay can be described thus: Inhibition of human recombinant GPRK6 at 15 nM related to control ULK1.
Assay [12] deals with T3, Dual specificity protein kinase TTK (Homo sapiens) (UniProt P33981).
T3 sequence (whole entry): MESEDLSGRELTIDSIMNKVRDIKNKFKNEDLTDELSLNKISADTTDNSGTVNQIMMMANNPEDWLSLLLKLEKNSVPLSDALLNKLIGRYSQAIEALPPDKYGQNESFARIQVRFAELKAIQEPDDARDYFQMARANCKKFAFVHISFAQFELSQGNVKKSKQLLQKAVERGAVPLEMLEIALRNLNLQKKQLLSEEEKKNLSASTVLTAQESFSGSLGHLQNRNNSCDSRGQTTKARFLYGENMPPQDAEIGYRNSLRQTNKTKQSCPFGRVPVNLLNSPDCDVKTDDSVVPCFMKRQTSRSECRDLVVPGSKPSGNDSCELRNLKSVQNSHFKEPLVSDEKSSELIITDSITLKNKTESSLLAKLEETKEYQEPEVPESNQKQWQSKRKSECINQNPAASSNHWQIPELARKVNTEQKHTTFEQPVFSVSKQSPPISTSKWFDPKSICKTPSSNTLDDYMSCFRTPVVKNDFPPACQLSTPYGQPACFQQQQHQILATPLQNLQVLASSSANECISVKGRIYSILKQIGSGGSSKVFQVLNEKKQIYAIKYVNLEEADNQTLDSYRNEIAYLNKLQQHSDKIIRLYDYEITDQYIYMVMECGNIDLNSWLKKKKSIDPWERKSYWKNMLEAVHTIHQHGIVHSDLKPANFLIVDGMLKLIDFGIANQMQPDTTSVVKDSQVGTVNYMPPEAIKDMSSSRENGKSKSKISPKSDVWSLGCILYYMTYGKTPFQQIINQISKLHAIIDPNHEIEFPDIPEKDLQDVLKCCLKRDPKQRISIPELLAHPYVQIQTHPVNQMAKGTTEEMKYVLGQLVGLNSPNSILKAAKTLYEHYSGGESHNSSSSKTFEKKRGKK
The assay can be described thus: Inhibition of human recombinant TTK at 15 nM related to control ULK1.

For assay [13], the target named is Serine/threonine-protein kinase 32A (Homo sapiens) (UniProt Q8WU08). The assay can be described thus: Inhibition of human recombinant YANK1 at 15 nM related to control ULK1.
The target of assay [14] is Dual specificity protein kinase CLK3 (Homo sapiens) (UniProt P49761). The assay can be described thus: Inhibition of human recombinant CLK3 at 15 nM related to control ULK1.

Regarding `O=C(N[C@@H](C1CC1)C(F)(F)F)c1cc(-c2cnn3cc(-c4ccc(F)cc4)cnc23)cs1`, the inhibition – broadly, the share of the control response that was lost under treatment – in assay [1] came to 0%. For the same compound, the fold change (FC) in assay [2] was determined as 0.16.
Turning to `CNC(=O)c1ccccc1Oc1nc(Nc2cc(OC)c(OC)c(OC)c2)ncc1Br`, the fold change (FC) amounted to 0.05 in assay [3]; 0.19 in assay [4]; 0.04 in assay [6]; 0 in [7]; 0.55 in [9]. In addition, the inhibition in assay [5] and in assay [8] was 0% each time.
As to `CC(C)[C@H](NC(=O)c1cc(-c2cnn3cc(-c4ccc(OCCN5CCCCC5)cc4)cnc23)cs1)C(F)(F)F`, in assay [10], the inhibition is 0%. Moreover, the fold change (FC) in assay [11] is 0; in assay [12], 0.25; in assay [13], 0.02; in [14], 0.01.
